Drug sensitivity score data for 39 compounds are collected here from the supplement of paper PMC8024199.

Structures are written as SMILES. ± gives the standard deviation of the averaged measurements.

Assay in all cases: drug sensitivity score (DSS) (DSS score); higher = more sensitive (stronger growth inhibition); extreme values may be limits of the assay
Experiment [1] concerns Ba/F3 P210-BCR-ABL1 RUNX1-/- (mouse). The procedure, abridged: (§1)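 Mouse Ba/F3 cells, either CRISPR/Cas9-edited at a target exon or edited-control clones, were screened against a 528-compound library on pre-printed 384-well plates. Each compound was tested at five concentrations across a 10,000-fold range, with 10,000 cells per well in RPMI with 10% FBS for 72 h at 37 °C and 5% CO2. CellTiter-Glo luminescence was scaled between vehicle and positive-control wells, and each dose-response was summarised as a drug sensitivity score. Scores were averaged over two replicates.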

Experiment [2] concerns Ba/F3 P210-BCR-ABL1 RUNX1wt/wt control (mouse). The gist of the method: as §1
The subject of experiment [3] is Ba/F3 P210-BCR-ABL1 RUNX1-/mut (mouse). The gist of the method: as §1

Take `COc1cccc2c1c(O)c(C(=O)N(C)c1ccc(C(F)(F)F)cc1)c(=O)n2C` [Tasquinimod]: the drug sensitivity score came out at 0.75 ± 1.1 in experiment [1], 0.5 ± 0.71 in experiment [2] and 2.15 ± 3 in experiment [3].
The like results for `CCN(c1cc(-c2ccc(CN3CCOCC3)cc2)cc(C(=O)NCc2c(C)cc(C)[nH]c2=O)c1C)C1CCOCC1` [Tazemetostat] were, in that order, 0.45 ± 0.64, 0 and 0.25 ± 0.35.
For the compound `CNC(=O)c1cc(COc2nnc(Nc3ccc(Cl)cc3)c3ccoc23)ccn1` [Telatinib], the drug sensitivity score in experiment [1] is 0.1 ± 0.14; in experiment [2], 0; in experiment [3] it was 0.
As for `CN1CCC(COc2cnc(-c3cccc(Cn4nc(-c5cccc(C#N)c5)ccc4=O)c3)nc2)CC1` [Tepotinib], the drug sensitivity score in experiment [1] is 2.8 ± 1.3; in experiment [2] it was 0; in experiment [3], 2.5 ± 3.5.
The like results for `COc1cc2c(Nc3ccc(Cl)c(Cl)c3F)ncnc2cc1OC[C@@H]1C[C@@H]2CN(C)C[C@@H]2C1` [Tesevatinib] were, in that order, 0.55 ± 0.49, 0 and 0.9 ± 1.3.
The like results for `O=c1sn(-c2cccc3ccccc23)c(=O)n1Cc1ccccc1` [Tideglusib] were, in that order, 0, 0 and 0.
In the case of `Cn1cncc1[C@@](N)(c1ccc(Cl)cc1)c1ccc2c(c1)c(-c1cccc(Cl)c1)cc(=O)n2C` [Tipifarnib], the values for the drug sensitivity score in experiment [1], in experiment [2] and in experiment [3] were 22.4 ± 2.8, 4.55 ± 0.071 and 18.5 ± 2.3, respectively.
The like results for `CC#CC(=O)N1CC[C@@H](n2c(=O)n(-c3ccc(Oc4ccccc4)cc3)c3c(N)ncnc32)C1` [Tirabrutinib] were, in that order, 0.85 ± 0.92, 0 and 0.65 ± 0.78.
In the case of `O=C1NC(=O)[C@@H](c2cn3c4c(cccc24)CCC3)[C@@H]1c1c[nH]c2ccccc12` [Tivantinib], the drug sensitivity score in experiment [1] was 5.6 ± 0.57; in experiment [2] it was 3.25 ± 0.071; in experiment [3] it was 5.45 ± 0.071.
Consider `COc1cc2nccc(Oc3ccc(NC(=O)Nc4cc(C)on4)c(Cl)c3)c2cc1OC` [Tivozanib], for which the drug sensitivity score in experiment [1] was 22.8 ± 0.92; in experiment [2], 14.45 ± 0.071; in experiment [3], 18.1 ± 0.92.
The like results for `CN(C)CCOc1ccc(/C(=C(/CCCl)c2ccccc2)c2ccccc2)cc1` [Toremifene] were, in that order, 5.9 ± 1.7, 4.85 ± 0.35 and 6.9 ± 2.7.
The like results for `CC(C)C[C@@H](C(=O)N[C@H](C(=O)OC1CCCC1)c1ccccc1)[C@H](O)C(=O)NO` [Tosedostat] were, in that order, 11.4 ± 1.7, 1.85 ± 0.49 and 11.3 ± 4.3.
Taken in the same sequence, the figures for `Cc1cc(Nc2cc(N3CCN(C)CC3)nc(Sc3ccc(NC(=O)C4CC4)cc3)n2)n[nH]1` [Tozasertib] were 17.7 ± 0.14, 7.95 ± 0.071 and 12.3 ± 0.85.
Regarding `NC(=S)N/N=C/c1ncccc1N` [Triapine], the results for the drug sensitivity score in experiment [1], in experiment [2] and in experiment [3] were 5.6 ± 0.28, 4.65 ± 0.071 and 5.05 ± 0.071, respectively.
The like results for `O=c1[nH]c(=O)n([C@H]2C[C@H](O)[C@@H](CO)O2)cc1C(F)(F)F` [Trifluridine] were, in that order, 15.5 ± 0.14, 8.45 ± 0.21 and 14.6 ± 0.85.
Taken in the same sequence, the figures for `O=C(CCCCCCC(=O)Nc1ccc([C@H]2O[C@@H](CSc3nc(-c4ccccc4)c(-c4ccccc4)o3)C[C@@H](c3ccc(CO)cc3)O2)cc1)NO` [Tubacin] were 6.45 ± 1.2, 4.35 ± 0.78 and 6.2 ± 0.28.
Taken in the same sequence, the figures for `CN1CCc2c(c3ccccc3n2Cc2ccc(C(=O)NO)cc2)C1` [Tubastatin A] were 4.05 ± 0.64, 0 and 3.6.
Take `Cc1cc(Nc2ncnc3ccc(NC4=NC(C)(C)CO4)cc23)ccc1Oc1ccn2ncnc2c1` [Tucatinib]: the drug sensitivity score in experiment [1] came out at 0.4 ± 0.57; in experiment [2], 0; in experiment [3] it was 0.
On to `Nc1cc(F)ccc1NC(=O)c1ccc(CNC(=O)/C=C/c2cccnc2)cc1` [Tucidinostat], for which the drug sensitivity score turned out to be 9.05 ± 2.8 in experiment [1], 4.9 ± 0.14 in experiment [2] and 8.05 ± 4.6 in experiment [3].
For the compound `COC(=O)c1ccc2c(c1)[nH]c1ncnc(NCCCN3CCCCC3)c12` [UM729], the figures for the drug sensitivity score in experiment [1], in experiment [2] and in experiment [3] were 4.1 ± 1.1, 0 and 3.5 ± 4.5, respectively.
As for `COc1cc2c(NC3CCN(C(C)C)CC3)nc(C3CCCCC3)nc2cc1OCCCN1CCCC1` [UNC0638], the drug sensitivity score in experiment [1] turned out to be 9.2 ± 0.57; in experiment [2], 1.45 ± 0.64; in experiment [3], 7.75 ± 2.
Taken in the same sequence, the figures for `COc1cc2c(NC3CCN(C(C)C)CC3)nc(N3CCC(F)(F)CC3)nc2cc1OCCCN1CCCC1` [UNC0642] were 5.35 ± 1.6, 0.15 ± 0.071 and 6.5 ± 3.
Taken in the same sequence, the figures for `O=C(c1ccc(C(=O)N2CCC(N3CCCC3)CC2)c(Nc2ccccc2)c1)N1CCC(N2CCCC2)CC1` [UNC1215] were 0, 0 and 0.
Taken in the same sequence, the figures for `CCCCNc1ncc(C(=O)NCc2ccc(-n3ccnc3)cc2)c(NC2CCC(O)CC2)n1` (configuration not stated) [UNC2881] were 0.3 ± 0.42, 0 and 0.
Regarding `NC(=O)c1cccc(-c2cccc(OC(=O)NC3CCCCC3)c2)c1` [URB597], the results for the drug sensitivity score in experiment [1], in experiment [2] and in experiment [3] were 0, 0.05 ± 0.071 and 0.15 ± 0.21, respectively.
The like results for `CC(C)Nc1cc(-c2c[nH]c(C(=O)N[C@H](CO)c3cccc(Cl)c3)c2)c(Cl)cn1` [Ulixertinib] were, in that order, 7.25 ± 0.071, 2.45 ± 1.6 and 5.6 ± 0.42.
Taken in the same sequence, the figures for `CC[C@@H]1CN(C(=O)NCC(F)(F)F)C[C@@H]1c1cnc2cnc3[nH]ccc3n12` [Upadacitinib] were 0.75 ± 1.1, 5.35 ± 3 and 0.05 ± 0.071.
Taken in the same sequence, the figures for `Cn1ncc(Cl)c1-c1cc(C(=O)N[C@H](CN)Cc2ccc(F)c(F)c2)oc1Cl` [Uprosertib] were 0.4 ± 0.57, 0 and 0.
As to `CS(=O)(=O)c1ccc(-c2cnc(N)c(C(=O)Nc3ccccc3)n2)cc1` [VE-821], the drug sensitivity score in experiment [1] was 5.55 ± 4.5; in experiment [2], 1.8; in experiment [3] it was 4.3 ± 4.8.
Turning to `O=C(O)CC1CC(c2ccccc2)=NO1` (configuration not stated) [VGX-1027], the drug sensitivity score amounted to 0.9 ± 1.3 in experiment [1], 0 in experiment [2] and 0.05 ± 0.071 in experiment [3].
The like results for `C=CC(=O)N1CC/C(=C\c2ccc(F)c([N+](=O)[O-])c2)C(=O)/C(=C/c2ccc(F)c([N+](=O)[O-])c2)C1` [VLX1570] were, in that order, 23.1 ± 0.78, 15.8 ± 0.92 and 23.5 ± 4.7.
Taken in the same sequence, the figures for `CNC(=O)c1ccccc1Nc1cc(Nc2ccc(N3CCOCC3)cc2OC)ncc1C(F)(F)F` [VS-4718] were 8.65 ± 0.49, 4.2 ± 0.28 and 7.65 ± 1.1.
Consider `CCCC(CCC)C(=O)O` [Valproic acid], for which the drug sensitivity score in experiment [1] stood at 2.3 ± 0.28; in experiment [2] it was 0; in experiment [3], 0.75 ± 0.071.
In the case of `CCc1c(C(=O)C(N)=O)c2c(OCC(=O)O)cccc2n1Cc1ccccc1` [Varespladib], the drug sensitivity score in experiment [1] was found to be 0; in experiment [2], 0; in experiment [3] it was 0.65 ± 0.92.
Take `C[C@@H]1COC(Nc2ccc3ncnc(Nc4ccc(OCc5nccs5)c(Cl)c4)c3c2)=N1` [Varlitinib]: the drug sensitivity score in experiment [1] is 1.35 ± 1.9; in experiment [2], 0; in experiment [3], 1.15 ± 1.6.
For `CC1(C)CCC(CN2CCN(c3ccc(C(=O)NS(=O)(=O)c4ccc(NCC5CCOCC5)c([N+](=O)[O-])c4)c(Oc4cnc5[nH]ccc5c4)c3)CC2)=C(c2ccc(Cl)cc2)C1` [Venetoclax], the drug sensitivity score in experiment [1] turned out to be 0; in experiment [2], 1.4 ± 1.4; in experiment [3] it was 1.05 ± 1.5.
The like results for `O=C(/C=C\n1cnc(-c2cc(C(F)(F)F)cc(C(F)(F)F)c2)n1)NNc1ccccn1` [Verdinexor] were, in that order, 14.4 ± 0.92, 9.1 ± 0.42 and 13.3 ± 0.57.
The like results for `CCCCOc1nc(N)c2c(n1)N(Cc1cccc(CN3CCCC3)c1)CC(=O)N2` [Vesatolimod] were, in that order, 2.65 ± 3.8, 1.65 ± 0.35 and 3.25 ± 3.8.
Taken in the same sequence, the figures for `COc1cccc(-c2ccc(NC(=O)C3=C(C(=O)O)CCC3)c(F)c2)c1` [Vidofludimus] were 2.2 ± 2.8, 0 and 2.4 ± 1.7.
